Data as given in paper PMC11213934, “Allosteric modulators of M1 muscarinic receptors enhance acetylcholine efficacy and decrease locomotor activity and turning behaviors in zebrafish” (Scientific Reports, 2024).
Entries after “also recorded” stand apart in the source; their conditions may differ. Read-outs that look alike come from different tables or passages of the source. Marks after values point to notes of the source that are not given here.

Columns and labels:
[1] = test system: wild-type (AB) zebrafish (Danio rerio); format: in vivo; conditions: compound at 10 µM relative to controls; mean ± s.e.m., N = 12
[2] = test system: wild-type (AB) zebrafish (Danio rerio); experiment: Maximum tolerated concentration (MTC) determination in larval zebrafish; format: in vivo; conditions: for MTC (maximum tolerated concentration): after 24 h exposure, 5 dpf larvae
Method: (§1) Larval zebrafish were produced in the University of Toledo zebrafish core facility and housed in an incubator maintained at 28 °C on a 14:10 h cycle. Fish were acclimated to the testing room conditions the evening prior to testing. All testing took place during the 14 h light cycle after the lights had been on for at least 2 h.
Determination of maximum tolerated concentration (adapted from Berghmans)[52] was completed by placing 5 days post fertilization (dpf) wild-type zebrafish larvae in a 24 well plate at 6 fish per well, and one compound concentration per well. […] Death was determined by the absence of heartbeat. Additional endpoints were used to assess toxicity at non-lethal concentrations such as startle capacity (poke stimulus), abnormalities in swimming behavior (loss of dorsoventral balance), and gross morphological deformities (bent body). […] The MTC determination was used to select three doses of each compound (low, medium, high dose) to be used in behavioral assays.

[3] = test system: wild-type (AB) zebrafish (Danio rerio); experiment: animal or person; format: in vivo; conditions: for MEC: locomotor behaviors
Method: as §1
The movement of larval zebrafish was monitored with the Noldus behavior recording system (Noldus Information Technology, Leesburg VA) and quantified using EthoVision® XT 15 software (Noldus Information Technology, Leesburg VA). Five-dpf zebrafish larvae were exposed to a range of nonlethal concentrations of compounds in a 24-well plate with appropriate controls. The plate was immediately placed in the incubator for a 30-min exposure period. After 30 min, the plate was transferred to the Noldus system and swimming behavior was recorded in 100% light for 30 min to measure spontaneous swimming behavior. The light was switched off for 10 min (dark period) and then switched on for 10 min (light period), which was then repeated for two additional cycles. In total, the larvae were exposed to three cycles of alternating 10 min dark and light periods (100% darkness-to-100% light). Each drug challenge was conducted on three separate plates with n = 6 larvae/dose/plate.
Absolute turn angle (TA) and angular velocity provided measures of the extent of turning behavior, while the intra-individual variance of turn angle quantified how consistently (low variance) or inconsistently (high variance) fish turned. A lowered intra-individual variance of turning reflected repeatedly performing the same turning behavior, a stereotypy.
All data for exposure and the behavioral end points were analyzed by one-way ANOVA (factor: drug concentration) followed by a Dunnett’s multiple comparisons test for post hoc significance between drug concentration and control group. Statistically significant differences are noted as follows; *p < 0.05; **p < 0.01; ***p < 0.001.

[4] = molecular target: T1, human M1 muscarinic receptors (Homo sapiens, UniProt P11229); experiment: [3H]-arachidonic acid release in CHO cells expressing M1 receptors, with and without ACh (single modulator concentration, four-parameter curves); format: cell-based; parameters: expressed in transfected cells; host or cells: CHO cells stably transfected with hM1, obtained from Mark Brann's laboratory (NIH); conditions: for No ACh: agonist effect of the allosteric ligand by itself, fraction of the maximal response that could be elicited by ACh / 0.1 µM ACh: response with modulator present divided by response to ACh alone / 100 µM ACh: response with modulator present divided by response to ACh alone: modulator 10 µM, CHO-hM1, mean ± s.e.m.; for No ACh: agonist effect of the allosteric ligand by itself, fraction of the maximal response that could be elicited by ACh: at least 4 determinations
T1 sequence (P11229 1-460): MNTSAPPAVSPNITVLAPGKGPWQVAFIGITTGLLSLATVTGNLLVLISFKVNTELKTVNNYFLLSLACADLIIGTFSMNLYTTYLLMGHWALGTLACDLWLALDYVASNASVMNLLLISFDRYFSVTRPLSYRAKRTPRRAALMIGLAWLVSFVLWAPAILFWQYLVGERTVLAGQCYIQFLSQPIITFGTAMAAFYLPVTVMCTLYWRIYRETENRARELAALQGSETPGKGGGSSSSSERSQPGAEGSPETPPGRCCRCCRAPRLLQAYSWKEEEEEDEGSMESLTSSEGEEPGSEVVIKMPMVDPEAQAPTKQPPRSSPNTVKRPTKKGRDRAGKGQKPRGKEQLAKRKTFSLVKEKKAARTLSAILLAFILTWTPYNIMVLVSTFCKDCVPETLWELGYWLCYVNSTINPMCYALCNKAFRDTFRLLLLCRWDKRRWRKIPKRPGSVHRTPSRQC
Method: CHO cells expressing human M1 muscarinic receptors were cultured at 37 °C in a 5% CO2 atmosphere in F12 medium supplemented with 5% fetal bovine serum, 100 units/ml penicillin, and 100 µg/ml streptomycin. These cells were obtained from Mark Brann’s laboratory when they were at NIH and have been in use by us and others for many years.
Measurement of [^3H]AA release was performed as described in Stahl and Ellis[24]. Stably transfected CHO-hM1 cells were seeded on 24-well plates (Greiner Bio-One GmbH, Frickenhausen, Germany) at a density of 5.0 × 10^4 cells/well in 0.5 ml of F-12 medium. Cells were incubated until they attached (approximately 3 h), followed by the addition of [^3H]AA to a final concentration of 0.05 μCi of [^3H]AA per well. The cells were then grown for 16 to 20 h before the assay was performed. [^3H]AA release was measured in Eagle’s basal medium with 20 mM HEPES and 2 mg/ml fatty acid-free bovine serum albumin (EM-BSA). Cells were rinsed twice with EM-BSA, followed by the addition of EM-BSA media containing experimental agents and incubated for 1 h at 37 °C. The assay was terminated by aspiration of the media, and the amount of [^3H]AA released was determined by liquid scintillation counting (Beckman-Coulter LS6500).
Where indicated (Fig. 2), cells were pretreated with POB to reduce the number of available receptors per cell. Stock POB was made up at 10 mM in ethanol and stored at −20C. Each well was pretreated with 0.5 ml of the appropriate concentration in PBS with 1 mM CaCl2 and 1 mM MgCl2 (PBS+ +) for 30 min at 37 °C, followed by 5 washes with PBS+ + . After pretreatment, the normal protocol follows as above.
Tabulated [^3H]AA release data are represented as a fraction of maximal release elicited by ACh or as the fraction of release elicited by the relevant concentration of ACh alone, as indicated. Dose-response curves were normalized to the maximal response of ACh without allosteric ligand. Where indicated, response curves were analyzed using the empirical four-parameter equation: Y=Top+Bottom-Top/1+X/C50^n where X is the concentration of the ligand used, Y is the amount of response, C50 is the concentration of the ligand that produces 50% of the maximal effect, Top and Bottom are the top and bottom plateaus of the curve, and n is related to the Hill slope for the curve. Where indicated, families of response curves were analyzed according to an allosteric operational model[50],[51]: Y=EM[τAA(KB+αβB)+τBBKA]/[τAA(KB+αβB)+τBBKA+AKB+KAKB+KAB+αAB] where EM is the maximal response; A is the concentration of ACh; B is the concentration of the allosteric ligand; τA and τB represent the operational efficacies of A and B, respectively; KA and KB are the equilibrium dissociation constants of A and B; and α and β represent the cooperativities between A and B in terms of binding and activation, respectively. Curve-fitting was carried out with GraphPad Prism, version 5.0 or 6.0 (San Diego CA).

[5] = compound at 10 µM relative to controls, mean ± s.e.m., N = 12
[6] = modulators at 10 µM (amiodarone 30 µM)

| Compound | MTC (maximum tolerated concentration) [2] [µM] | Variance turn angle [3, 5] | MEC [3] [µM] | No ACh: agonist effect of the allosteric ligand by itself, fraction of the maximal response that could be elicited by ACh [4] | 0.1 µM ACh: response with modulator present divided by response to ACh alone [4] | 100 µM ACh: response with modulator present divided by response to ACh alone [4] | Effect on M1 receptor activity and ACh response, in words [4, 6] | also measured |
| --- | --- | --- | --- | --- | --- | --- | --- | --- |
| CCCCc1oc2ccccc2c1C(=O)c1cc(I)c(OCCN(CC)CC)c(I)c1 [Amiodarone, reference compound] | 10 | 102.2 ± 10.4% | > 10 |  |  |  |  | Angular velocity [1]: 83.2 ± 12.0%; Concentration that produced death ([2]; 24 h exposure): 100 µM; Distance moved [3, 5]: 85.7 ± 10.2% |
| COc1ccc(Cn2cc(C(=O)O)c(=O)c3ccccc32)cc1 [BQCA, reference compound] |  | 119.6 ± 7.0* % |  | 0.02 ± 0.00 |  |  |  | Effect on M1 receptor activity and ACh response, in words [4]: enhanced potency without appreciable effect on maximal response; Effect on locomotor activity and turning behaviors, in words ([3]; 30 min spontaneous swimming period): decreased overall locomotor activity; also recorded: increased angular velocity; response vs control in vivo at 10 µM ([3]; Danio rerio, read-out: Distance moved): 72 ± 10%; MEC ([3]; abbreviation not defined in the paper): 3 µM; Angular velocity [3, 5]: 141.8 ± 14.9* % |
| CCCCc1oc2ccccc2c1C(=O)c1cc(I)c(OCCNCC)c(I)c1.Cl [Compound 1, (2-butylbenzofuran-3-yl)(4-(2-(ethylamino)ethoxy)-3,5-diiodophenyl)methanone hydrochloride] | 3 |  | 3 | 0.18 ± 0.03 | 1.01 ± 0.11 | 0.83 ± 0.09 | suppressed the maximal ACh response | Therap. index [3]: 1 |
| CCCCc1oc2ccccc2c1C(=O)c1cc(I)c(OCC[N+](CC)(CC)CC)c(I)c1 [Compound 2, N-ethyl amiodarone, reference compound] | 1 |  | > 1 | 0.04 ± 0.02 | 0.13 ± 0.04 | 0.50 ± 0.03 | NAM of mAChR potency and efficacy |  |
| CCCCc1oc2ccccc2c1C(=O)c1cc(I)c(O)c(I)c1 [Compound 3, reference compound] | 3 |  | > 3 | 0.04 ± 0.01 | 0.63 ± 0.10 | 0.90 ± 0.07 | suppressed the maximal ACh response |  |
| CCCCc1oc2ccccc2c1C(=O)c1ccc(O)cc1 [Compound 4, reference compound] | 0.3 |  | > 0.3 | 0.04 ± 0.01 | 0.62 ± 0.07 | 0.81 ± 0.06 | suppressed the maximal ACh response |  |
| CCCCc1oc2ccccc2c1C(=O)c1cc(I)c(OCCN(CC)C(C)=O)c(I)c1 [Compound 5, N-(2-(4-(2-butylbenzofuran-3-carbonyl)-2,6-diiodophenoxy)ethyl)-N-ethylacetamide] | 10 | 102.5 ± 8.1% | > 10 | 0.22 ± 0.03 | 1.86 ± 0.42 | 1.47 ± 0.09 | significant intrinsic agonist activity | Angular velocity [1]: 104.0 ± 10.7%; Distance moved [3, 5]: 108.0 ± 12.9% |
| COc1cccc(CN2C(=O)C(=O)c3ccccc32)c1 [Compound 8j, 1-(3-methoxybenzyl)indoline-2,3-dione] |  |  |  | 0.02 ± 0.02 | 1.09 ± 0.31 | 0.96 ± 0.01 |  |  |
| CC(COc1ccccc1)N(CCCl)Cc1ccccc1 (stereo not drawn) [POB, phenoxybenzamine, reference compound] |  |  |  |  |  |  |  | Reduction of receptor number ([4]; pretreatment of cells with 0.3 µM POB): 90% |
| O=C1C(=O)N(Cc2ccc(Br)cc2)c2ccccc21 [VU0119498, reference compound] |  |  |  | 0.06 ± 0.01 | 1.28 ± 0.12 | 1.03 ± 0.05 |  |  |
| VU0238408 [reference compound] | 30 | 146.6 ± 12.4*** % | 1 |  |  |  |  | Angular velocity [1]: 180.1 ± 20.3 %; Therap. index [3]: 30; Distance moved [3, 5]: 34.6 ± 4.0*** % |
